Assay results as given in a melting point compilation (Tetko et al.; mined from patent text by program, amines drawn as free bases though some values may be those of a salt).
Residues, ends and D or L forms follow the SMILES beside them. *: point of attachment. Bz = O=C(c1ccccc1)*

Structure (SMILES)	melting point
COc1ccc(Sc2ccncc2)c(N)c1	93 to 94 °C
CC(C)CCCC(C)C1CCC2C3CC4(OCCO4)C4CCCC(O)C4(C)C3CCC12C (stereo not drawn)	96 to 98 °C
CNC(=O)C(Cc1ccc(O)cc1)NC(=O)Nc1n[nH]c(=S)s1 (stereo not drawn)	198 to 200 °C
Cn1c(C(=O)c2ccc(F)cc2)cc2cc(Br)ccc21	162 to 164 °C
O=C(CC1CCCCC1=O)c1ccccc1 (stereo not drawn)	44 to 45 °C
COC(=O)C1CC(=O)N(c2ccc(C)cc2)C1 (stereo not drawn)	71 to 74 °C
CC(C)n1nc(-c2c(-c3ccccc3)nn3ccc(OCC(=O)OCc4ccccc4)cc23)ccc1=O	174 °C
NC(=O)c1ccc2nc3ccsc3c(=O)n2c1	319 to 320 °C
COc1ccc2c(=O)c(S(C)(=O)=O)cn(C)c2c1	212 to 214 °C
COc1cc(OCc2ccccn2)ccc1/C=C/c1cc(/C=C/c2ccccc2)[nH]n1	143 to 146 °C
N/C(=C1/Sc2ccccc2C1=O)c1ccccc1F	156 to 158 °C
CCn1c(=O)ccn(-c2ccc(N)cc2)c1=O	191 °C
CNCC1Cc2cc(F)cc(-c3cc(Cl)ccc3Cl)c2O1 (stereo not drawn)	118 to 120 °C
CC(C)C1C(CO)=C(c2ccc(F)cc2)C=CN1C12CC3CC(CC(C3)C1)C2 (stereo not drawn)	143 to 145 °C
Cc1ccc(-n2c(=O)[nH]c3ccccc3c2=O)cc1	267 °C
CCCNCC(=O)N1c2ccccc2N2CCc3cccc(c32)C1C (stereo not drawn)	113 to 118 °C
COC(=O)NC(CCSC)C(N)=O (racemic)	93 to 94 °C
CN(Cc1cccc2c1C(=O)N(C1CCC(=O)NC1=O)C2=O)C(=O)Nc1ccc2ccccc2c1 (stereo not drawn)	> 260 °C
COC(=O)C(Cc1ccc(O)cc1)NC(=O)C(Cc1ccccc1)NC(=O)c1ccccc1 (stereo not drawn) (Bz-Phe-Tyr-OMe; configuration not given here)	188 to 190 °C
CC(=O)SC(CC(=O)c1ccc(Oc2ccc(C(C)C)cc2)cc1)C(=O)O (stereo not drawn)	110 to 112 °C
Cc1cc(Oc2c(Cl)cc(C(F)(F)F)cc2Cl)nn1C(N)=O	152 to 154 °C
CC(=O)Nc1cc2c(cc1O)CCN(Cc1ccccc1)CC2c1ccccc1 (stereo not drawn)	180 °C
c1ccc2c(OC[C@H]3CCCN3c3ccnc4ncnn34)cccc2c1	74 to 75 °C
O=C(Nc1cccnc1NCc1ccc(Cl)cc1)c1ccccc1[N+](=O)[O-]	145 to 147 °C
CN1CCCC1=NC(=O)Nc1ccc([N+](=O)[O-])cc1	180 to 182 °C
CN1CC2Cc3ccc(Cl)cc3C(O)C2C1 (stereo not drawn)	178 to 182 °C
COc1ccc(-c2ccc3cc(CO)ccc3c2)cc1C12CC3CC(CC(C3)C1)C2	169 to 171 °C
COc1ccc(Nc2ccccc2)c(NS(C)(=O)=O)c1	109 to 111 °C

Structure (SMILES)	melting point
CN1C(=O)CC2(CNC(=O)C2)C1=O (stereo not drawn)	201 to 204 °C
COc1cc(OC)c(-c2cc3ccccc3n2C(=O)OC(C)(C)C)cc1/C=C/C(=O)c1ccc(C(=O)O)cc1	182 to 183 °C
CN1CCN(S(=O)(=O)c2cc(-c3csc(=Nc4ccccc4)n3C)ccc2Cl)CC1	156 to 158 °C
c1cc(N2CCNCC2)cnn1	> 300 °C
NS(=O)(=O)CCNC(=O)OCc1ccccc1	107 to 109 °C
COc1ccc2c(Nc3ccc(C)c(O)c3)c(C#N)cnc2c1	> 250 °C
CC(C)c1cccc(C(C)C)c1NC(=O)C(N)Cc1ccc(OCc2ccccc2)cc1 (stereo not drawn)	117 to 122 °C
N#Cc1ccc([C@@H]2CN(Cc3ccccc3)C[C@@]23NC(=O)N(c2cc(Cl)cc(Cl)c2)C3=O)cc1 (relative stereo)	200 °C
O=C(Oc1n[nH]c(=O)c2nc3cc(Cl)ccc3c(O)c12)c1ccccc1	348 to 353 °C
N#CNC(=Nc1ccccc1)NCCNCC(O)COc1ccccc1C#N (stereo not drawn)	146 to 147 °C
COCn1nc(N2C(=O)c3ccccc3C2=O)c2cc(S(=O)(=O)C(C)C)cc(OCCc3ccccn3)c21	160 to 161 °C
CC(C)CC(NC(=O)OCc1ccccc1)C(=O)NC(C(=O)Nc1n[nH]c(=S)s1)C(C)C (stereo not drawn)	146 °C
CCOC(=O)N1CCC(NC(=O)c2ccc(Cl)c(Cl)c2)C12CCCCC2 (stereo not drawn)	153 to 155 °C
CC(=O)c1cc(C(F)(F)F)nn1-c1ccc(NC(=O)c2cccnc2F)cc1	188 to 189 °C
COC(=O)c1cccc2c(=O)c3cccc(I)c3[nH]c12	174 to 176 °C
Oc1ccc(-c2cn(-c3ccncc3)c(-c3ccc(F)cc3)n2)cc1	230 to 231 °C
Clc1nn(-c2cccnc2)cc1NCC1CC1	82 to 83 °C
Cc1cc(C(=O)NC2CC2)ccc1N1CCNCC1	172 to 173 °C
Cc1cc2c(c3ccc(=O)[nH]c13)OCC2C=O (stereo not drawn)	230 to 232 °C
CNc1c(F)cc2c(=O)c(C(=O)O)cn(-c3nc(N)c(F)cc3F)c2c1Br	205 to 208 °C
CC(C)(C)CC(=O)c1c(CC(C)(C)C(=O)O)n(Cc2ccc(Cl)cc2)c2ccc(OCc3ccc4ccccc4n3)cc12	183 to 184 °C
O=[N+]([O-])c1ccc(N2Cc3ccccc3P2(=O)c2ccccc2)cc1 (stereo not drawn)	255 to 257 °C
COc1nc2ccccc2cc1NC(=O)N1CCN(c2ccccc2Cl)CC1	79 to 80 °C
COc1cccc2c1C(=O)N1CCC[C@H]1c1c(C(=O)OC(C)(C)C)ncn1-2	200 to 201 °C
O=C(NC(=O)c1c(F)cccc1Cl)Nc1ccc(S(=O)(=O)C(F)(F)C(F)F)cc1F	176 to 177 °C
CC(C(N)=O)c1ccc2c(c1)Sc1ccccc1CC2=O (stereo not drawn)	178 to 179 °C
CC(NC(=O)Cc1cc(F)cc(F)c1)C(=O)NC1C(=O)NC(F)c2ccccc21 (stereo not drawn)	195 to 200 °C

Continued, values first:

melting point	Structure (SMILES)
157 °C	CCC(CC)(OCc1oc(-c2ccc(Cl)cc2)nc1C)C(=O)O
258 to 260 °C	Cc1ccc(N2C(=O)C(O)=C(C(=O)c3ccc(C(C)C)cc3)C2c2ccc(Cl)cc2)nn1 (stereo not drawn)
49 to 50 °C	CCCCc1cccn1NS(=O)(=O)C1CCCC=C1C(=O)OCC (stereo not drawn)
124 °C	Cc1coc(N(CCCCCCN)c2nc(C)co2)n1
82 to 84 °C	CCCCCCCCSc1ccc(CC(NC(C)=O)(C(=O)OCC)C(=O)OCC)cc1
128 to 130 °C	O=C(NCCCn1cncn1)c1ccc(Cl)c(Cl)c1
118 to 120 °C	CCOC(=O)c1cnc2sc(C)cc2c1O
207 to 210 °C	NC(=S)c1[nH]c2ccc(Cl)cc2c1S(=O)(=O)c1ccccc1
95 °C	Cc1cccc(C)c1NC(=O)c1cc(CO)on1
218 to 220 °C	CCCCCCCCCCCCCCCCN1CCN(c2ccc(CCC(=O)O)cc2)CC1
139 to 140 °C	CCC(Cn1cncn1)(C(N)=O)c1ccc(Cl)cc1 (stereo not drawn)
139 to 141 °C	CNC(=S)C1=C(O)C(C)(COC)Oc2ccc([N+](=O)[O-])cc21 (stereo not drawn)
57 to 58 °C	Fc1ccccc1COc1nn(Cc2ccccc2F)c2ncccc12
140 to 142 °C	CCC(COC)n1cc(Cl)nc(N2CCc3cc(OC)c(F)c(Cl)c32)c1=O (stereo not drawn)
117 to 119 °C	CC(=O)c1cc(Cl)c(N)c(I)c1F
137 to 138 °C	Cc1nc(C(F)(F)F)ccc1C(=O)C1=C(Cl)C2CCC(C2)C1=O (stereo not drawn)
235 to 238 °C	CCN1C(=O)CCC(C)(C)c2ccc(Nc3ncc(Cl)c(Nc4c(F)cccc4OCC#N)n3)cc21
89 to 90 °C	COCCOc1ccc(CN)cc1O
160 to 162 °C	COc1cc(C(=O)O)cc(OC)c1CC(C)C
123 to 124 °C	CCCNCCC1Cc2ccc(C3=NNC(=O)CC3)cc2C1 (stereo not drawn)
159 to 161 °C	CCOC(=O)c1c(C)nc(N(C)N)c([N+](=O)[O-])c1Cl
108 to 109 °C	CCOc1nn(-c2ccc(C(F)(F)F)cn2)cc1CCCOc1nn(CC)cc1CC(=O)O
177 to 178 °C	CCCOc1ccc(S(=O)(=O)C(C)C)cc1C(N)=O
146 to 154 °C	CC(C)N(CCCc1ccccc1)[C@H]1CC[C@H](c2ccc(O)cc2)CC1

melting point	Structure (SMILES)
111 to 126 °C	Nc1c(CCO)cccc1C(=O)c1ccc(Cl)cc1
136 °C	COC(=O)[C@@H](C)OCC#Cc1cc(Cl)ccc1NS(=O)(=O)c1ccc2ncsc2c1
95 to 97 °C	CCCCC1=C(C)C=NC1=O
289 °C	CC(=O)C(C)(C)Nc1nc(N)nc(O)c1[N+](=O)[O-]
155 to 168 °C	CC(C)Cc1ccc(C(C)C(=O)NCCCNC2=NCCN2)cc1 (stereo not drawn)
81 to 84 °C	CCOC(=O)Cn1ncc(-c2ccc(OC)cc2)c1-c1ccccc1
65 to 66 °C	O=C(O)CCCc1ccc(-c2ccccc2F)cc1
175 to 178 °C	CN(C)c1ncc(C(=O)NCc2ccccc2)c(S)n1
193 °C	COc1cc2nc3ccccc3sc-2c(OC)c1=O
153 to 154 °C	N#Cc1ccc2oc(CCCc3cc4cc(C#N)ccc4o3)cc2c1
157 °C	Cn1ncc2c(=O)n3c(nc21)SCCCC3
138 °C	COc1cnc(CS(C)(=O)=O)nc1OC(=O)NN1CCOCC1
276 to 279 °C	CCOC(=O)c1cn(N)c2cc(-n3cccc3)c(F)cc2c1=O
43 to 45 °C	CCCCOc1cc(C)c(O)cc1C
143 °C	Cc1c(OCc2ccc(CC(C)C)cc2)ccc(C(=O)Nc2ccccc2OCCCC(=O)O)c1C
111 to 112 °C	Cc1oc(-c2ccccc2)nc1COc1cncc(CO)c1
108 to 109 °C	CSc1ccc(CSc2nnc(-c3ccc4c(c3)CCO4)o2)cc1C(F)(F)F
137 to 138 °C	COC(=O)c1cc(N=Nc2ccc(S(=O)(=O)Cl)cc2)ccc1O
165 to 168 °C	Cc1cc(O)nc(SCC(CS(=O)(=O)c2ccc(-c3ccc(Cl)cc3)cc2)C(=O)O)n1 (stereo not drawn)
255 to 257 °C	CCN(CCCCN)c1ccc2c(=O)[nH][nH]c(=O)c2c1
230 to 232 °C	CN(c1ccc2ccccc2c1)c1nc(=O)c2cccnc2s1
70 °C	CSc1ccc(CCCOCCCCCCNCC(O)c2ccc3c(n2)COC(c2ccccc2)O3)cc1 (stereo not drawn)
107 to 108 °C	Cc1ccc(C)n1-c1nc(S(=O)(=O)Nc2c(Cl)cccc2Cl)n[nH]1
298 to 299 °C	NC(=O)c1nc(N)nc(N)c1-c1ccc(Cl)cc1Cl
